Measurements from patent US12486269B2 (Aconcagua Bio, Inc., priority 2024, dated 2025).

Key:
[1] = target: T1, COS-7/AMY3 (human calcitonin receptor (CTR) and RAMP3) (Homo sapiens, UniProt O60896+P30988); assay: Amylin Receptor cAMP Assay II; format: cell-based; conditions: values marked **: Amylin Receptor cAMP Assay II; COS-7/AMY3 cells, cAMP dynamic 2 kit, 30 min; read-out: Amylin Receptor cAMP Stimulation Activity: EC50
T1 construct: expressed in transfected cells; host or cells: COS-7
Source text: AMYRs are heterodimers of the class B calcitonin (CT) G-protein-coupled receptor (CTR) and receptor activity-modifying proteins (RAMPs). All three RAMPs can interact with the CTR and form AMY1, AMY2, AMY3 with RAMP1, RAMP2 and RAMP3, respectively. Like other class B1 GPCRs, the CT receptor family is canonically coupled to Gs-mediated cAMP production, and measurement of cAMP accumulation has been the primary assay used to determine peptide selectivity and potency.
(§1) To optimize functional activity directed toward Gαs coupling, COS-7 cells were stably transfected with human calcitonin receptor (CTR) and RAMP3, simultaneously. 100×concentration of compound working solutions were prepared with 4-fold serial dilution in 384-well Echo LDV plate (Labcyte, Cat #LP-0200-BC). 200 nL/well 100×concentration of compound working solutions were moved to 384-well white microplate (Perkin Elmer, Cat #6007680) using Labcyte ECHO550. 1×10^5 cells/mL COS-7/AMY3 cell suspensions prepared with assay buffer [HBSS containing 20 mM HEPES (Gibco, Cat #15630-080), 0.5 mM IBMX (Sigma, Cat #15879) and 0.1% Casein (Sigma, Cat #C4765)], 20 μL cell suspensions were added to each well of previous generated assay plate which already contains 200 nL compound at 100×concentration using ThermoFisher Multidrop Combi (2000 cells/well). Seal the plate and incubate at 37° C. with 5% CO2 for 30 min.
(§2) After incubation, the cAMP assay signal was generated using cAMP dynamic 2 kit (Revvity, Cat #62AM4PEC). 10 μL cAMP-d2 working solution was added to each well, followed by 10 μL Anti-cAMP antibody-cryptate working solution which was added to each well using CERTUS FLEX LIQUID […]. The samples were then incubated at room temperature for 1 hour protected from light. the fluorescence was read at 665 and 615 nm with Reader PerkinElmer EnVision 2105. % Activity=100−(mean RLU of test sample−mean RLU of positive control)/(mean RLU of vehicle control−mean RLU of positive control)×100 Calcitonin Receptor (CTR) cAMP Assay

[2] = target: T2, human calcitonin receptor (CTR) (Homo sapiens, UniProt P30988); assay: Calcitonin Receptor (CTR) cAMP Assay; format: cell-based; conditions: COS7-human CTR Clone #2 stable cell line, cAMP dynamic 2 kit, 30 min; read-out: Calcitonin Receptor cAMP Stimulation Activity: EC50
T2 construct: expressed in transfected cells; host or cells: COS-7 (COS7-human CTR Clone #2)
T2 sequence (P30988 25-474): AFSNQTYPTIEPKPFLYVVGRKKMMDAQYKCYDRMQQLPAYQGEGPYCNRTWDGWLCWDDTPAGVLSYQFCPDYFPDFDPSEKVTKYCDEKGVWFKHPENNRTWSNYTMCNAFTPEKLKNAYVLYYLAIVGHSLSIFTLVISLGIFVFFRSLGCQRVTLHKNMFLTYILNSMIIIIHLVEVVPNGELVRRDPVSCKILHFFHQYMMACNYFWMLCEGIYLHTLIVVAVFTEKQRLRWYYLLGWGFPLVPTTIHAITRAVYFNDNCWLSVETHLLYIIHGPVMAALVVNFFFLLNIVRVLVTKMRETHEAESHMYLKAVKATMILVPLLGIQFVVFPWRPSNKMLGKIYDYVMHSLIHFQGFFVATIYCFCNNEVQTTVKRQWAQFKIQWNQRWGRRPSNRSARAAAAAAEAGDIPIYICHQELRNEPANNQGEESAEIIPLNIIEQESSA
Description: as §2
The calcitonin receptor (CTR) belongs to the subfamily of GPCRs known as the secretin or ‘B’ family of GPCRs. Like other class B1 GPCRs, the CT receptor family is canonically coupled to Gs-mediated cAMP production, and measurement of cAMP accumulation has been the primary assay used to determine peptide selectivity and potency.
as §1, with “to create COS7-human CTR Clone #2 stable cell line.” for “and RAMP3, simultaneously.”, “COS7-human CTR Clone #2” for “COS-7/AMY3”
as §2, with “control)×100” for “control)×100 Calcitonin Receptor (CTR) cAMP Assay”

T1 sequence (O60896 24-148, one chain of several): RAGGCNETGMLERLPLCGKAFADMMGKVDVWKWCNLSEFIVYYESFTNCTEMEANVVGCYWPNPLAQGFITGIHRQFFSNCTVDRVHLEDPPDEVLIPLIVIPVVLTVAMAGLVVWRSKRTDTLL

Structure (SMILES)	EC50 [1] [nM]	EC50 [2] [nM]
CC(C)C1CS(=O)(=O)c2c1nc(CCc1ccc(F)cc1)c(-c1n[nH]c(=O)o1)c2-c1ccc2c(c1)oc(=O)n2Cc1ccc(C#N)cn1 (stereo not shown) [Compound 163, 6-((6-(5-(4-fluorophenethyl)-3-isopropyl-1,1-dioxido-6-(5-oxo-4,5-dihydro-1,3,4-oxadiazol-2-yl)-2,3-dihydrothieno[3,2-b]pyridin-7-yl)-2-oxobenzo[d]oxazol-3(2H)-yl)methyl)nicotinonitrile]	11.2	0.588
O=C1c2c(nc(CCc3ccc(F)cc3)c(-c3n[nH]c(=O)o3)c2-c2ccc3c(c2)oc(=O)n3Cc2ccc(F)cn2)[C@@H]2CCCN12 [Compound 164, (S)-6-(2-(4-fluorophenethyl)-5-oxo-3-(5-oxo-4,5-dihydro-1,3,4-oxadiazol-2-yl)-7,8,9,9a-tetrahydro-5H-pyrido[2,3-a]pyrrolizin-4-yl)-3-((5-fluoropyridin-2-yl)methyl)benzo[d]oxazol-2(3H)-one]	39.9	4.28
N#Cc1cc2c(cc1F)[C@H](Nc1nccc3cc(-c4c5c(nc(CCc6ccc(F)cc6)c4-c4n[nH]c(=O)o4)[C@@H]4CCCN4C5=O)sc13)CC2 [Compound 165, (R)-6-fluoro-1-((2-((S)-2-(4-fluorophenethyl)-5-oxo-3-(5-oxo-4,5-dihydro-1,3,4-oxadiazol-2-yl)-7,8,9,9a-tetrahydro-5H-pyrido[2,3-a]pyrrolizin-4-yl)thieno[2,3-c]pyridin-7-yl)amino)-2,3-dihydro-1H-indene-5-carbonitrile]	6.73	0.539
O=C1c2c(nc(CCc3ccc(F)cc3)c(-c3n[nH]c(=O)o3)c2-c2cc3ccnc(N[C@@H]4CCc5c4ccc(F)c5Cl)c3s2)[C@@H]2CCCN12 [Compound 168, 5-((S)-4-(7-(((R)-4-chloro-5-fluoro-2,3-dihydro-1H-inden-1-yl)amino)thieno[2,3-c]pyridin-2-yl)-2-(4-fluorophenethyl)-5-oxo-7,8,9,9a-tetrahydro-5H-pyrido[2,3-a]pyrrolizin-3-yl)-1,3,4-oxadiazol-2(3H)-one]	15.3	0.341
O=C1c2c(nc(CCc3ccc(F)cc3)c(-c3n[nH]c(=O)o3)c2-c2cc3ccnc(N[C@@H]4COc5ccccc54)c3s2)[C@@H]2CCCN12 [Compound 169, 5-((S)-4-(7-(((S)-2,3-dihydrobenzofuran-3-yl)amino)thieno[2,3-c]pyridin-2-yl)-2-(4-fluorophenethyl)-5-oxo-7,8,9,9a-tetrahydro-5H-pyrido[2,3-a]pyrrolizin-3-yl)-1,3,4-oxadiazol-2(3H)-one]	254	10.2

Now those with a lower EC50 [1], led by results:

EC50 [1] [nM]	EC50 [2] [nM]	Structure (SMILES)
3.71	0.157	N#Cc1ccc(Cn2c(=O)oc3cc(-c4c(-c5n[nH]c(=O)o5)c(CCc5ccc(F)cc5)nc5c4c(=O)n4n5CCC4)ccc32)cc1F [Compound 162, 2-fluoro-4-((6-(2-(4-fluorophenethyl)-5-oxo-3-(5-oxo-4,5-dihydro-1,3,4-oxadiazol-2-yl)-8,9-dihydro-5H,7H-pyrazolo[1′,2′:1,2]pyrazolo[3,4-b]pyridin-4-yl)-2-oxobenzo[d]oxazol-3(2H)-yl)methyl)benzonitrile]
1.38	0.0875	O=C1c2c(nc(CCc3ccc(F)cc3)c(-c3n[nH]c(=O)o3)c2-c2cc3ccnc(N[C@@H]4CCc5cc(F)c(F)cc54)c3s2)[C@@H]2CCCN12 [Compound 166, 5-((S)-4-(7-(((R)-5,6-difluoro-2,3-dihydro-1H-inden-1-yl)amino)thieno[2,3-c]pyridin-2-yl)-2-(4-fluorophenethyl)-5-oxo-7,8,9,9a-tetrahydro-5H-pyrido[2,3-a]pyrrolizin-3-yl)-1,3,4-oxadiazol-2(3H)-one]
4.38	0.13	COc1c(F)ccc2c1CC[C@H]2Nc1nccc2cc(-c3c4c(nc(CCc5ccc(F)cc5)c3-c3n[nH]c(=O)o3)[C@@H]3CCCN3C4=O)sc12 [Compound 167, 5-((S)-4-(7-(((R)-5-fluoro-4-methoxy-2,3-dihydro-1H-inden-1-yl)amino)thieno[2,3-c]pyridin-2-yl)-2-(4-fluorophenethyl)-5-oxo-7,8,9,9a-tetrahydro-5H-pyrido[2,3-a]pyrrolizin-3-yl)-1,3,4-oxadiazol-2(3H)-one]
